The results in this text go back to ChEMBL document CHEMBL1201862, “PubChem BioAssay data set” (2004).

Molecules are shown by their SMILES.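 Method: 48-hour compound exposure of cells in 96-well plates, five concentrations, linear interpolation of endpoints. GI50 marks 50% less growth.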 Calls of active or inactive are those of the source. Cut-off read from the data, not from the text of the source: active = GI50 up to about 1.1 µM and inactive = higher.

Some test systems named below: COLO 205; SF-295; OVCAR-4; UACC-257; CAKI-1; HOP-92; MOLT-4; SK-OV-3; NCI-H460; 786-0; TK-10; Malme-3M; UO-31; KM12; SW-620; HCC 2998; HCT-15.
Holding throughout (assay): NCI anticancer screen, dose series, 48 h

Consider `Cc1ccc(NC(=O)CC2Sc3ccccc3NC2=O)c(C)c1` (stereo unspecified), for which the GI50 with COLO 205 is 8.55 µM (inactive); in the experiment on SF-295, 16.2 µM (inactive); with OVCAR-4, 22 µM (inactive); in the experiment on UACC-257 it was 2.59 µM (inactive); with CAKI-1 it was 21.5 µM (inactive); with HOP-92, 17.4 µM (inactive). The GI50 in the experiment on MOLT-4 is 6.71 µM (inactive); in the experiment with SK-OV-3, 15.5 µM (inactive); in the experiment on NCI-H460 it was 11.4 µM (inactive); with 786-0, 13.7 µM (inactive); with TK-10, 20.2 µM (inactive); in the experiment with Malme-3M, 14.7 µM (inactive). For the same compound, the GI50 in the experiment on UO-31 was 13 µM (inactive); in the experiment with KM12 it was 4.88 µM (inactive); in the experiment with SW-620 it was 11.4 µM (inactive); in the experiment with HCC 2998, 11 µM (inactive).
As to `CC(C)OP(=O)(OC(C)C)/C(Cl)=N/Nc1ccc([N+](=O)[O-])cc1`, the GI50 in the experiment with COLO 205 is > 100 µM (inactive); in the experiment with OVCAR-4 it was > 100 µM (inactive); with UACC-257 it was > 100 µM (inactive); with CAKI-1, 97.3 µM (inactive); in the experiment on HOP-92 it was 44.9 µM (inactive); with MOLT-4, 53.6 µM (inactive). Further, the GI50 was > 100 µM (inactive) in the experiment on NCI-H460; > 100 µM (inactive) in the experiment with 786-0; > 100 µM (inactive) with TK-10; above 100 µM with HCT-15; > 100 µM (inactive) in the experiment on Malme-3M; > 100 µM (inactive) with UO-31. Also, the GI50 with KM12, in the experiment on SW-620 and with HCC 2998 was > 100 µM (inactive) each time.
With `COc1ccc(O)c2c(=O)ccccc12`, the GI50 in the experiment with COLO 205, in the experiment with SF-295, with OVCAR-4, in the experiment on UACC-257, with HOP-92 and with MOLT-4 was > 100 µM (inactive) each time. Besides, the GI50 with SK-OV-3 was > 100 µM (inactive); in the experiment with NCI-H460 it was > 100 µM (inactive); with 786-0, > 100 µM (inactive); with TK-10, 6.32 µM (inactive); with HCT-15, above 100 µM; in the experiment with Malme-3M, > 100 µM (inactive). Also, the GI50 in the experiment on UO-31 is 78.2 µM (inactive); in the experiment with KM12, > 100 µM (inactive); in the experiment on SW-620, > 100 µM (inactive); with HCC 2998 it was > 100 µM (inactive).
Turning to `Cc1ccc(Cl)c(NC(=O)C(=O)C(C(=O)c2ccncc2)C2OC(=O)c3ccccc32)c1` (stereo unspecified), the GI50 in the experiment with COLO 205, in the experiment with SF-295, in the experiment on OVCAR-4, in the experiment on UACC-257, in the experiment on CAKI-1 and in the experiment on HOP-92 was > 100 µM (inactive) each time. Further, the GI50 in the experiment with SK-OV-3 was > 100 µM (inactive); in the experiment on NCI-H460 it was > 100 µM (inactive); with 786-0 it was > 100 µM (inactive); in the experiment with TK-10 it was > 100 µM (inactive); in the experiment on HCT-15, above 100 µM; in the experiment with Malme-3M it was > 100 µM (inactive). For the same compound, the GI50 in the experiment with UO-31, in the experiment with SW-620 and in the experiment with HCC 2998 was > 100 µM (inactive) in each case.
`COc1cc2c(cc1OC)-c1c(cc(OC)c(OC)c1OC)C2=O`: the GI50 was > 100 µM (inactive) in the experiment on COLO 205; > 100 µM (inactive) in the experiment with SF-295; > 100 µM (inactive) in the experiment on UACC-257; > 100 µM (inactive) in the experiment with HOP-92; > 100 µM (inactive) in the experiment with MOLT-4; 93.3 µM (inactive) with SK-OV-3. For the same compound, the GI50 with NCI-H460 is > 100 µM (inactive); with 786-0, > 100 µM (inactive); with TK-10 it was > 100 µM (inactive); in the experiment with HCT-15, above 100 µM; in the experiment with Malme-3M, > 100 µM (inactive); in the experiment with UO-31 it was 83.4 µM (inactive). In addition, the GI50 in the experiment with KM12, with SW-620 and with HCC 2998 was > 100 µM (inactive) throughout.
Turning to `O=C1C2Nc3ccccc3SC2C(=O)N1c1ccc(Br)cc1` (stereo unspecified), the GI50 was 55.5 µM (inactive) with COLO 205; 26.6 µM (inactive) with SF-295; 12.8 µM (inactive) in the experiment with OVCAR-4; 26.5 µM (inactive) in the experiment with UACC-257; 10.9 µM (inactive) in the experiment with HOP-92; 25.4 µM (inactive) in the experiment on MOLT-4. In addition, the GI50 was 15.6 µM (inactive) in the experiment with SK-OV-3; 47 µM (inactive) in the experiment with NCI-H460; 18.9 µM (inactive) in the experiment with 786-0; 28.8 µM (inactive) in the experiment on TK-10; 78.7 µM in the experiment with HCT-15; 27.2 µM (inactive) in the experiment on Malme-3M. Moreover, the GI50 was 18.4 µM (inactive) with UO-31, 28.2 µM (inactive) in the experiment on KM12, 45 µM (inactive) in the experiment with SW-620 and 45.8 µM (inactive) in the experiment with HCC 2998.
Consider `Cc1cc(C(=O)N2CCN(Cc3ccccc3)CC2)c(C)o1`, for which the GI50 in the experiment on SF-295, in the experiment with OVCAR-4, in the experiment with UACC-257, with CAKI-1, in the experiment on HOP-92 and in the experiment with MOLT-4 was > 100 µM (inactive) in each case. The GI50 was > 100 µM (inactive) in the experiment on SK-OV-3; > 100 µM (inactive) in the experiment on NCI-H460; > 100 µM (inactive) with 786-0; > 100 µM (inactive) with TK-10; above 100 µM in the experiment with HCT-15; > 100 µM (inactive) in the experiment with UO-31. Besides, the GI50 in the experiment with KM12, in the experiment with SW-620 and with HCC 2998 was > 100 µM (inactive) throughout.
In the case of `COc1cc(O)c2c(c1)O[C@@H]1OCC[C@H]21`, the GI50 with COLO 205, with SF-295, in the experiment with OVCAR-4, with UACC-257, with HOP-92 and in the experiment on MOLT-4 was > 100 µM (inactive) in each case. For the same compound, the GI50 is > 100 µM (inactive) in the experiment on SK-OV-3; > 100 µM (inactive) in the experiment with NCI-H460; > 100 µM (inactive) with 786-0; > 100 µM (inactive) with TK-10; above 100 µM in the experiment with HCT-15; > 100 µM (inactive) in the experiment on Malme-3M. Moreover, the GI50 in the experiment with UO-31, in the experiment on KM12, in the experiment on SW-620 and in the experiment with HCC 2998 was > 100 µM (inactive) each time.
For `CCN(CC)CC(C(=O)Nc1c(C)cccc1C)/C(C)=N\NC(=S)NN` (stereo unspecified), the GI50 in the experiment on COLO 205, with SF-295, in the experiment on UACC-257, with HOP-92, with MOLT-4 and with SK-OV-3 was > 100 µM (inactive) throughout. Besides, the GI50 with NCI-H460, in the experiment with 786-0, in the experiment on TK-10, in the experiment with Malme-3M, with UO-31 and with KM12 was > 100 µM (inactive) throughout. Besides, the GI50 with SW-620 and with HCC 2998 was > 100 µM (inactive) in each case.
With `c1c[nH]c(Cc2nc(Cc3c[nH]cn3)c[nH]2)n1`, the GI50 was 5.37 µM (inactive) in the experiment on COLO 205; 35.6 µM (inactive) with SF-295; 4.45 µM (inactive) in the experiment with OVCAR-4; 27.9 µM (inactive) in the experiment with CAKI-1; 22 µM (inactive) in the experiment with HOP-92; 3.48 µM (inactive) in the experiment on MOLT-4. Besides, the GI50 with SK-OV-3 is 9.29 µM (inactive); in the experiment with NCI-H460, 24 µM (inactive); in the experiment on 786-0, 11.7 µM (inactive); in the experiment with TK-10 it was 67.5 µM (inactive); in the experiment with HCT-15, 4.58 µM; in the experiment on Malme-3M, 5.07 µM (inactive). In addition, the figures for the GI50 with KM12, in the experiment on SW-620 and in the experiment on HCC 2998 were 7.64 µM (inactive), 6.73 µM (inactive) and 2.74 µM (inactive), respectively.
On to `Nc1ncnc2c1ncn2C1(CO)OC(CO)C(O)C1O` (stereo unspecified), for which the GI50 in the experiment with COLO 205, in the experiment on SF-295, with OVCAR-4, in the experiment on UACC-257, with CAKI-1 and in the experiment with HOP-92 was > 100 µM (inactive) in each case. Also, the GI50 in the experiment on MOLT-4 is > 100 µM (inactive); with SK-OV-3 it was > 100 µM (inactive); in the experiment with NCI-H460 it was > 100 µM (inactive); with 786-0, > 100 µM (inactive); with TK-10, > 100 µM (inactive); with HCT-15, above 100 µM. Besides, the GI50 in the experiment on Malme-3M, in the experiment with KM12, in the experiment on SW-620 and in the experiment on HCC 2998 was > 100 µM (inactive) in each case.
Turning to `CC1(C)COC(C2(C)C(=O)C=C(c3ccccc3)c3ccccc32)=N1` (stereo unspecified), the GI50 with COLO 205 was 42.6 µM (inactive); with SF-295 it was 37.9 µM (inactive); in the experiment on OVCAR-4, 34.8 µM (inactive); in the experiment with UACC-257 it was 31.4 µM (inactive); with CAKI-1, 42.6 µM (inactive); in the experiment on HOP-92, 21.8 µM (inactive). Further, the GI50 in the experiment with MOLT-4 was 25.8 µM (inactive); in the experiment with SK-OV-3 it was 22.4 µM (inactive); in the experiment on NCI-H460, 36.9 µM (inactive); in the experiment on 786-0, 59.8 µM (inactive); in the experiment with TK-10, 93.8 µM (inactive); in the experiment with HCT-15, 27.4 µM. For the same compound, the GI50 in the experiment with Malme-3M is 11.5 µM (inactive); in the experiment with UO-31, 28.3 µM (inactive); in the experiment on KM12, 47.3 µM (inactive); in the experiment on SW-620, 81.8 µM (inactive).
Regarding `Clc1cc2nc[nH]c2cc1Cl`, the GI50 in the experiment on COLO 205 is > 100 µM (inactive); with SF-295 it was > 100 µM (inactive); in the experiment on OVCAR-4, > 100 µM (inactive); in the experiment on CAKI-1 it was > 100 µM (inactive); in the experiment with HOP-92, 56 µM (inactive); in the experiment with MOLT-4, > 100 µM (inactive). The GI50 was > 100 µM (inactive) with SK-OV-3; > 100 µM (inactive) in the experiment on NCI-H460; > 100 µM (inactive) in the experiment on 786-0; > 100 µM (inactive) in the experiment on TK-10; above 100 µM with HCT-15; > 100 µM (inactive) with Malme-3M. The GI50 in the experiment on UO-31 was 48.2 µM (inactive); in the experiment on KM12 it was 71.8 µM (inactive); with SW-620 it was > 100 µM (inactive); in the experiment on HCC 2998, > 100 µM (inactive).
